Source: patent US11286299B2, “Peptides selective for Bcl-2 family proteins” (Massachusetts Institute of Technology, priority 2018, dated 2022)
Read-outs that look alike come from different tables or passages of the source. One block for each substance: values may come before it.

What was measured:
[1] = target: T1, Bcl-xL (Homo sapiens, UniProt Q07817); conditions: cited from earlier work; for Ki: Table X3, previously reported selective peptides, read-out: reported affinity, Bcl-xL
[2] = target: T2, Mcl-1 (Homo sapiens, UniProt Q07820); conditions: cited from earlier work; for Ki: Table X3, previously reported selective peptides, read-out: reported affinity, Mcl-1
[3] = target: T3, Bfl-1 (Homo sapiens, UniProt Q16548); conditions: cited from earlier work
T3 sequence (Q16548 1-151): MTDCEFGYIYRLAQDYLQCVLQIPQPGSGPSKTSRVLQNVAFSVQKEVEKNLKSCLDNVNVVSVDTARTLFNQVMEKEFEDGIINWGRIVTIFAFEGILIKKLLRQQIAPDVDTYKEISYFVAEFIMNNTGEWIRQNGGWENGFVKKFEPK

[4] = target: T3, Bfl-1; assay: Competition fluorescence polarization (anisotropy) binding assay; design: Bfl-1 residues 1-151; made in house; host or cells: E. coli
Protocol: (§1) Fluorescence polarization competition binding assay Competition fluorescence polarization experiments were performed as described by Jenson et al. […]. Experiments were performed in triplicate, using the same protein and peptide preparations, and data were fit as described by Foight et al. (20) to a complete competitive binding model (47).

[5] = target: T1, Bcl-xL; assay: as above; design: human Bcl-xL residues 1-209; made in house; host or cells: E. coli
Protocol: as §1

[6] = target: T2, Mcl-1; assay: as above; design: Mcl-1 residues 172-327; made in house; host or cells: E. coli
Protocol: as §1

[7] = target: T3, Bfl-1; assay: Yeast cell-surface display binding (FACS titration); design: Bfl-1 residues 1-151; made in house; host or cells: E. coli; conditions: for binding to Bfl-1 in yeast display: SORTCERY designs; for reported affinity, Bfl-1: Table X3, this study, Bfl-1 specific peptides, cell-surface measurement, highest concentration tested 1000 nM
Description: Protein constructs Anti-apoptotic protein constructs used in this work correspond to human Bcl-xL residues 1-209, Mcl-1 residues 172-327 and Bfl-1 residues 1-151, expressed in E. coli and purified as described by Dutta et al. (45).
Cells were filtered and washed 2× in chilled BSS before resuspending the labeled cells in BSS and using a BD FACSAria flow cytometer or a BD FACSCanto and FACSDiva software for cell sorting or analysis.
Crystals were flash frozen in liquid nitrogen.

[8] = system: B-ALL cell lines with engineered dependencies on human anti-apoptotic genes (Bfl-1, Mcl-1, Bcl-xL, Bcl-2); assay: Cellular BH3 profiling assay (mitochondrial depolarization, JC-1, permeabilized cells); type: cell-based, murine; conditions: for pro-apoptotic response in dependent cell lines: permeabilized cells, Bfl-1 vs Mcl-1 or Bcl-xL dependent cell lines
Protocol: Cell Culture We used murine p185+ Arf^−/^− B-ALL suspension cell lines with engineered dependencies on the human anti-apoptotic genes (Bfl-1, Mcl-1, Bcl-xL), along with an apoptosis-resistant (Bax^−/−/Bak^−/−) control(51). Cells were grown in Roswell Park Memorial Institute (RPMI) 1640 medium supplemented with 10% (v/v) fetal bovine serum, 2 mM L-glutamine, 100 U/mL penicillin, […] streptomycin, 0.1 mM minimal essential medium nonessential amino acids, 25 mM HEPES and […] β-mercaptoethanol. Cell line authentication was performed by short tandem repeat (STR) analysis. Cell were monitored for mycoplasma contamination using the MycoAlert® Mycoplasma Detection Kit (Lonza, Rockland, Mass., USA).
(§2) Cellular BH3 profiling assay BH3 profiling was adapted from the protocol of Ryan and Letai (32). Peptides were diluted at the desired concentrations in MEB buffer (150 mM Mannitol, 10 mM HEPES-KOH pH 7.5, 50 mM KCl, 0.02 mM EGTA, 0.02 mM EDTA, 0.1% BSA and 5 mM succinate) containing […] oligomycin, […] digitonin, […] and 10 mM 2-mercaptoethanol in 384-well plates. […] Fluorescence emission was measured every 5 min for 3 hr at […] with 525 nm excitation on a Tecan Spark 10M. To produce percent depolarization, the area under the resulting curve was calculated and normalized to the assay controls. […]
as §2, with “Peptides” for “Cellular BH3 profiling assay BH3 profiling was adapted from the protocol of Ryan and Letai (32). Peptides”, “titrated by serial dilution” for “diluted at the desired concentrations”, “HEPES-KOH,” for “HEPES-KOH”, “Succinate)” for “succinate)”, “h” for “hr”
As depicted in FIGS. 7-11, permeabilized cells were contacted with increasing doses of BH3 peptides, ad mitochondria outer membrane permeabilization (MOMP) was monitored using a voltage-sensitive dye (JC-1). […]

[9] = fluoresceinated Bim BH3 competitor, as reported by Dutta et al. 2013
[10] = Table X2, 50 nM protein, 25 nM fluoresceinated Bim BH3, SD of three replicates, read-out: Ki, Bfl-1
[11] = Table X3, this study, same values as Table X2, read-out: reported affinity, Bfl-1
[12] = Table X2, 50 nM protein, 25 nM fluoresceinated Bim BH3, SD of three replicates, read-out: Ki, Bcl-xL
[13] = Table X2, 50 nM protein, 25 nM fluoresceinated Bim BH3, SD of three replicates, read-out: Ki, Mcl-1
[14] = Table X3, this study, same values as Table X2, read-out: reported affinity, Mcl-1
[15] = Table X3, this study, same values as Table X2, read-out: reported affinity, Bcl-xL

T1 sequence (Q07817 1-209): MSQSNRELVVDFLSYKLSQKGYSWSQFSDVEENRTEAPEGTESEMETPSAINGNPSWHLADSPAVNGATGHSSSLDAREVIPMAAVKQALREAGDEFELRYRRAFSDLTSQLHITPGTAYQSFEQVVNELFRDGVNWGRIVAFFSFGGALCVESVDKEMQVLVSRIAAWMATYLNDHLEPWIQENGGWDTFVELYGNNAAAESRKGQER
T2 sequence (Q07820 172-327): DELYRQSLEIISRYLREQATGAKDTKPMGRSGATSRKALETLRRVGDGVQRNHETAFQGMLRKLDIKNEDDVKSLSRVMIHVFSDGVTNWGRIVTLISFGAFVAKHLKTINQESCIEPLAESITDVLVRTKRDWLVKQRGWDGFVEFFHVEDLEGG

Substance: (fl)IWIAQELRRIGDEFNAYY [Fluoresceinated Bim]
Kd [1, 9]: 0.006 ± 0.001 µM
Kd ([2]; fluoresceinated Bim BH3 competitor, as reported by Dutta et al. 2013, read-out: Kd, Mcl-1): 0.0008 ± 0.0004 µM
Kd [3, 9]: 0.004 ± 0.001 µM

Ki [4, 10]: > 4 µM
Ki [4, 11]: > 4 µM
Ki [5, 12]: 0.0037 ± 0.0003 µM
Ki [6, 13]: > 4 µM
Ki [6, 14]: > 4 µM
Substance: Ac-QPLIWFGAQLRRGADEFAAQRER-NH2 [srt.X7]

Ki [6, 13]: > 4 µM
Substance: Ac-QRIIWIAAELRRAADELDKQIER-NH2 [srt.XF02]

Ki [6, 13]: > 4 µM
Substance: Ac-QRIIWIAAELRRAADQLDAQIER-NH2 [srt.XF03]

binding to Bfl-1 in the FP competition assay [4]: undetectably
reported affinity, Bfl-1 [7]: 14 ± 2 nM
Substance: Ac-QRVVHIAAGLRRTGDQLEAYGER-NH2 [srt.F4]
binding to Bfl-1 in yeast display [7]: bound Bfl-1 with high affinity in yeast display
pro-apoptotic response in dependent cell lines [8]: selectively induced a pro-apoptotic response in Bfl-1 dependent cell lines, but not in Mcl-1 or Bcl-xL dependent cell lines

Ki [4, 10]: > 4 µM
Ki [4, 11]: > 4 µM
Ki [5, 12]: 0.00132 ± 0.00018 µM
Ki [6, 13]: > 4 µM
Ki [6, 14]: > 4 µM
Substance: Ac-QTLIWYGASLRRYADEFAKQRER-NH2 [srt.X1]

Ki [4, 10]: > 4 µM
Substance: Ac-QWLRDVVAELARIADEFHAQYER-NH2 [srt.MX05]

Ki [4, 10]: > 4 µM
Substance: Ac-QWLRWVIAELIRIADEFHAQYER-NH2 [srt.MX01]

Ki [5, 12]: > 4 µM
Substance: Ac-RRVDEIAQILRRIGDNVTTYIER-NH2 [srt.MF06]

binding to Bfl-1 in the FP competition assay [4]: weakly
reported affinity, Bfl-1 [7]: 3.2 ± 0.4 nM
Substance: Ac-RRVVQIAAGLRRAGDQLEKYGER-NH2 [srt.F10]
binding to Bfl-1 in yeast display [7]: bound Bfl-1 with high affinity in yeast display
inhibition of Bfl-1 in the cellular assay relative to peptide FS1 [8]: at least as potently as a previously described peptide
pro-apoptotic response in dependent cell lines [8]: selectively induced a pro-apoptotic response in Bfl-1 dependent cell lines, but not in Mcl-1 or Bcl-xL dependent cell lines

Ki [4, 10]: > 4 µM
Ki [4, 11]: > 4 µM
Ki [5, 12]: > 4 µM
Ki [5, 15]: > 4 µM
Substance: Ac-RSELEVVQELVRIGDIVVAYFER-NH2 [srt.M1]

Ki [4, 10]: > 4 µM
Ki [4, 11]: > 4 µM
Ki [5, 12]: > 4 µM
Ki [5, 15]: > 4 µM
Ki [6, 13]: 0.0006 ± 0.0003 µM
Substance: Ac-RSQYEVIQELIRIGDIVLAYFER-NH2 [srt.M9]

Substance: QWVREIAAGLRLAADNVNAQLER [FS1]
Ki [1]: 2.4 ± 0.4 µM
Ki [2]: > 5 µM
Ki ([3]; previously described peptide (ref 25), read-out: Ki for Bfl-1): 0.015 µM

Substance: QWVREIAAGLRRAADDVNAQVER [FS2]
Ki [1]: > 5 µM
Ki [2]: 3.2 ± 0.3 µM
Kd ([2]; read-out: Kd for Mcl-1): > 3 µM
Ki ([3]; Table X3, previously reported selective peptides, read-out: reported affinity, Bfl-1): 0.021 ± 0.006 µM
